The values that follow come from patent US6734194B2, “Method of use of (imidazol-5-yl)methyl-2-quinolinone derivatives to inhibit smooth muscle cell proliferation” (Janssen Pharmaceutica N.V., priority 1997, dated 2004).

Common to all, as to format: cell-based
Experiment [1] has as its system rat A10 arterial smooth muscle cells. Nature of the experiment: Inhibition of smooth muscle cell proliferation, A10 cells. To be noted: 144 h, A10 cell line, incubated six days, Coulter cell count normalized to DMSO-treated controls, read-out: IC50 (concentration of test compound producing a 50% inhibition of cell proliferation). An excerpt: (§1) The effects of the compounds of the present invention were studied in human pulmonary artery smooth muscle cells (PASMC), human coronary artery smooth muscle cells (CASMC), and rat A10 arterial smooth muscle cells growing under standard tissue culture conditions. CASMC and PASMC cell cultures were purchased from Clonetics (San Diego, Calif.). A10 smooth muscle cells were purchased from the American Type Culture Collection (Bethesda, Md.). Cells were inoculated at an initial cell density of 50,000 cells per well in six-well plastic cluster tissue culture dishes in 3.0 ml of complete growth medium. Test compounds were dissolved in dimethysulfoxide (DMSO) and added in a 3 μl volume to each well to produce the desired concentrations of said test compound (5, 10, 50, 100 and 500 nM final concentrations). Cells were incubated for six days. On day 4, fresh medium plus a fresh solution containing the test compound were added to the cell cultures. On day 6, the growth medium was removed by aspiration. The cells were detached by trypsinizing in 1.0 ml of trypsin-EDTA solution. The cell suspensions were transferred to 20 ml of an isotonic diluent and 0.5 ml of the diluted cell suspension was counted with a Coulter particle counter. Cell counts from test compound-treated cultures were normalized to cell counts obtained from DMSO-treated controls and expressed as percent inhibition. […]

For experiment [2], the system named is human pulmonary artery smooth muscle cells (PASMC). Nature of the experiment: Inhibition of smooth muscle cell proliferation, PASMC. To be noted: 144 h, PASMC cell line, incubated six days, Coulter cell count normalized to DMSO-treated controls, read-out: IC50 (concentration of test compound producing a 50% inhibition of cell proliferation).
Source text: as §1

The subject of experiment [3] is human coronary artery smooth muscle cells (CASMC). Nature of the experiment: Inhibition of smooth muscle cell proliferation, CASMC. To be noted: 144 h, CASMC cell line, incubated six days, Coulter cell count normalized to DMSO-treated controls, read-out: IC50 (concentration of test compound producing a 50% inhibition of cell proliferation).
Source text: as §1

Molecules are shown by their SMILES.

Consider `Cn1cncc1C(N)(c1ccc(Cl)cc1)c1ccc2c(c1)c(-c1cccc(Cl)c1)cc(=O)n2C` (single isomer, unassigned; (+)) [Co. No. 75, (+)-6-[amino(4-chloro-phenyl)(1-methyl-1H-imidazol-5-yl)methyl]-4-(3-chlorophenyl)-1-methyl-2(1H)-quinolinone], for which the IC50 in experiment [1] is 14 nM; in experiment [2], 24 nM; in experiment [3], 16 nM.
